Assay results published in ChEMBL document CHEMBL1137838, “Synthesis and structure-activity relationships of andrographolide analogues as novel cytotoxic agents” (2004).

How the values were obtained:
Assay type in all cases: functional
U-251 = assay: Concentration causing 50% inhibition of cancer cell growth against human CNS U251 cell line
NCI-H522 = assay: Concentration causing 50% inhibition of cancer cell growth against human lung H522 cell line
A498 = assay: Concentration causing 50% inhibition of cancer cell growth against human renal A498 cell line
SW-620 = assay: Concentration causing 50% inhibition of cancer cell growth against human colon SW620 cell line
SK-OV-3 = assay: Concentration causing 50% inhibition of cancer cell growth against human ovarian SKOV3 cell line
DU-145 = assay: Concentration causing 50% inhibition of cancer cell growth against human prostate DU145 cell line
NCI/ADR-RES = assay: Concentration causing 50% inhibition of cancer cell growth against human breast MCF-7/ADR cell line

| SMILES | IG50 (U-251) | IG50 (NCI-H522) | IG50 (A498) | IG50 (SW-620) | IG50 (SK-OV-3) | IG50 (DU-145) | IG50 (NCI/ADR-RES) |
| --- | --- | --- | --- | --- | --- | --- | --- |
| CCC(=O)OC[C@@]1(C)[C@H]2CC[C@@]3(CO3)[C@@H](C/C=C3/C(=O)OC[C@H]3OC(=O)/C=C/c3ccc(OC)c(OC)c3)[C@]2(C)CC[C@H]1OC(=O)CC | 2 µM | 7.5 µM | 3.5 µM | 0.4 µM | 2.5 µM | 2.5 µM | 1.5 µM |
| CC(=O)OC[C@@]1(C)[C@H]2CC[C@@H](CO)[C@@H](C/C=C3/C(=O)OC[C@H]3OC(C)=O)[C@]2(C)CC[C@H]1OC(C)=O | 19 µM | 19 µM | – | 7 µM | 3 µM | 2 µM | – |
| CC(=O)O[C@@H]1COC(=O)/C1=C/C[C@@H]1[C@@]2(CC[C@@H]3[C@](C)(CO)[C@H](O)CC[C@]31C)CO2 | 50 µM | 25 µM | 7 µM | 20 µM | 5 µM | 25 µM | 20 µM |
| CCC(=O)OC[C@@]1(C)[C@H]2CC[C@@]3(CO3)[C@@H](C/C=C3/C(=O)OC[C@H]3OC(=O)/C=C/c3ccccc3)[C@]2(C)CC[C@H]1OC(=O)CC | 6 µM | 20 µM | 3 µM | 2.5 µM | 10 µM | 4 µM | 0.08 µM |
| C=C1CC[C@@H]2[C@](C)(CO)[C@H](O)CC[C@@]2(C)[C@@H]1CCC1=CCOC1=O [DEOXYANDROGRAPHOLIDE] | >100 µM | >100 µM | – | 54 µM | 0.18 µM | 5 µM | – |
| CC(=O)O[C@@H]1CC[C@]2(C)[C@H](CC[C@@]3(CO3)[C@H]2C/C=C2/C(=O)OC[C@H]2O)[C@]1(C)CO | 45 µM | 60 µM | 20 µM | >100 µM | 50 µM | 50 µM | 20 µM |
| CC(=O)OC[C@@]1(C)[C@H]2CC[C@@]3(CO3)[C@@H](C/C=C3/C(=O)OC[C@H]3OC(C)=O)[C@]2(C)CC[C@H]1OC(C)=O | 2.5 µM | 15 µM | 0.25 µM | 1 µM | 25 µM | 15 µM | 5 µM |
| CC(=O)OC[C@@]1(C)[C@H]2CC[C@@]3(CO3)[C@@H](C/C=C3/C(=O)OC[C@H]3OC(=O)CNC(=O)OC(C)(C)C)[C@]2(C)CC[C@H]1OC(C)=O | 4 µM | 4 µM | 20 µM | 3 µM | 8 µM | 7 µM | 4 µM |
| C=C1CC[C@@H]2[C@](C)(CO)[C@H](O)CC[C@@]2(C)[C@@H]1/C=C/C1=CCOC1=O | 81 µM | >100 µM | – | >100 µM | – | 2 µM | >100 µM |
| CC(=O)OC[C@@]1(C)[C@H]2CC[C@@H](C=O)[C@@H](C/C=C3/C(=O)OC[C@H]3OC(C)=O)[C@]2(C)CC[C@H]1OC(C)=O | 62 µM | 34 µM | – | 32 µM | 3 µM | 12 µM | – |
| C[C@]1(CO)[C@H]2CC[C@@]3(CO3)[C@@H](C/C=C3/C(=O)OC[C@H]3O)[C@]2(C)CC[C@H]1O | 16 µM | 30 µM | 30 µM | 30 µM | 4 µM | 20 µM | 20 µM |
| CC(=O)O[C@@H]1COC(=O)/C1=C/C[C@@H]1[C@@]2(CC[C@@H]3[C@](C)(CO)[C@H](OC(C)=O)CC[C@]31C)CO2 | 30 µM | 30 µM | 6 µM | 55 µM | 2.5 µM | 6.5 µM | 20 µM |
| C=C1CC[C@@H]2[C@](C)(CO)[C@H](O)CC[C@@]2(C)[C@@H]1CCC1C(=O)OC[C@H]1O (stereo partly drawn) | 85 µM | >100 µM | – | >100 µM | >100 µM | 2 µM | – |
| CC(=O)OC[C@@]1(C)[C@H]2CCC3=COC(C4=CCOC4=O)C[C@H]3[C@]2(C)CC[C@H]1OC(C)=O (stereo partly drawn) | 30 µM | 50 µM | – | 40 µM | 40 µM | 40 µM | 40 µM |
| CCC(=O)O[C@@H]1COC(=O)/C1=C/C[C@@H]1[C@@]2(CC[C@@H]3[C@](C)(CO)[C@H](OC(=O)CC)CC[C@]31C)CO2 | 35 µM | 40 µM | 40 µM | 7 µM | 3 µM | 20 µM | 30 µM |
| CCC(=O)OC[C@@]1(C)[C@H]2CC[C@@]3(CO3)[C@@H](C/C=C3/C(=O)OC[C@H]3OC(=O)CC)[C@]2(C)CC[C@H]1OC(=O)CC | 3 µM | 3 µM | – | 2 µM | 1.36 µM | 3 µM | – |
| CCC(=O)OC[C@@]1(C)[C@H]2CC[C@@]3(CO3)[C@@H](C/C=C3/C(=O)OC[C@H]3OC(=O)/C=C/c3ccc4c(c3)OCO4)[C@]2(C)CC[C@H]1OC(=O)CC | 35 µM | 3 µM | 6 µM | 65 µM | 0.3 µM | 4 µM | 20 µM |
| CC(=O)OC[C@@]1(C)[C@H]2CC[C@@]3(CO3)[C@@H](C/C=C3/C(=O)OC[C@H]3O)[C@]2(C)CC[C@H]1OC(C)=O | 40 µM | – | 20 µM | 20 µM | >100 µM | – | 30 µM |
| CC(C)(C)OC(=O)NCC(=O)O[C@@H]1COC(=O)/C1=C/C[C@@H]1[C@@]2(CC[C@@H]3[C@](C)(CO)[C@H](O)CC[C@]31C)CO2 | 40 µM | >100 µM | 5 µM | 40 µM | 6 µM | 20 µM | 7 µM |
| C=C1CC[C@@H]2[C@](C)(CO)[C@H](O)CC[C@@]2(C)[C@@H]1C/C=C(/C(=O)O)[C@H](O)CO | >100 µM | 80 µM | 4 µM | >100 µM | >100 µM | >100 µM | 30 µM |
| CCC(=O)OC[C@@]1(C)[C@H]2CC[C@@]3(CO3)[C@@H](C/C=C3/C(=O)OC[C@H]3OC(=O)/C=C/c3ccc(OC)cc3)[C@]2(C)CC[C@H]1OC(=O)CC | 3 µM | 4.8 µM | 3 µM | 0.6 µM | 2 µM | 2 µM | 3 µM |
| C=C1CC[C@@H]2[C@](C)(CO)[C@H](O)CC[C@@]2(C)[C@@H]1C/C=C1/C(=O)OC[C@H]1O [ANDROGRAPHOLIDE] | 3 µM | 17 µM | 30 µM | 10 µM | 15 µM | 20 µM | 15 µM |
| CCC(=O)OC[C@@]1(C)[C@H]2CC[C@@]3(CO3)[C@@H](C/C=C3/C(=O)OC[C@H]3OC(=O)CNC(=O)OC(C)(C)C)[C@]2(C)CC[C@H]1OC(=O)CC | 20 µM | 4 µM | 4 µM | 30 µM | 15 µM | 20 µM | 15 µM |
| C[C@]1(CO)[C@H]2CC[C@@]3(CO3)[C@@H](C/C=C3/C(=O)OC[C@H]3OC(=O)/C=C/c3ccccc3)[C@]2(C)CC[C@H]1O | 6 µM | 6 µM | 9 µM | 0.5 µM | 4 µM | 5.5 µM | 2 µM |
